In ChEMBL document CHEMBL5537110, “SIRT1-dependent mitochondrial biogenesis supports therapeutic effects of 4-butyl-polyhydroxybenzophenone compounds against NAFLD” (Eur J Med Chem, 2023):
Active and inactive are the calls of the source. The rule behind the calls is not given here.

Experiments:
EA.hy 926 [1] = experiment: Cytoprotective activity against H2O2-induced toxicity in human EA.hy 926 cells assessed as protective rate at 10 uM pretreated with compound for 4 hrs followed by incubation with H2O2 for 2 hrs by absorbance based analysis; type: functional; settings: time 6 hrs
EA.hy 926 [2] = experiment: Cytoprotective activity against H2O2-induced toxicity in human EA.hy 926 cells assessed as protective rate pretreated with compound for 4 hrs followed by incubation with H2O2 for 2 hrs by absorbance based analysis; type: functional, cell-based
[3] = target: T1, NAD-dependent protein deacetylase sirtuin-1 (Homo sapiens) (UniProt Q96EB6); experiment: Binding affinity to SIRT1 (unknown origin) by surface plasmon resonance assay; settings: filed as activator
T1 sequence (whole entry): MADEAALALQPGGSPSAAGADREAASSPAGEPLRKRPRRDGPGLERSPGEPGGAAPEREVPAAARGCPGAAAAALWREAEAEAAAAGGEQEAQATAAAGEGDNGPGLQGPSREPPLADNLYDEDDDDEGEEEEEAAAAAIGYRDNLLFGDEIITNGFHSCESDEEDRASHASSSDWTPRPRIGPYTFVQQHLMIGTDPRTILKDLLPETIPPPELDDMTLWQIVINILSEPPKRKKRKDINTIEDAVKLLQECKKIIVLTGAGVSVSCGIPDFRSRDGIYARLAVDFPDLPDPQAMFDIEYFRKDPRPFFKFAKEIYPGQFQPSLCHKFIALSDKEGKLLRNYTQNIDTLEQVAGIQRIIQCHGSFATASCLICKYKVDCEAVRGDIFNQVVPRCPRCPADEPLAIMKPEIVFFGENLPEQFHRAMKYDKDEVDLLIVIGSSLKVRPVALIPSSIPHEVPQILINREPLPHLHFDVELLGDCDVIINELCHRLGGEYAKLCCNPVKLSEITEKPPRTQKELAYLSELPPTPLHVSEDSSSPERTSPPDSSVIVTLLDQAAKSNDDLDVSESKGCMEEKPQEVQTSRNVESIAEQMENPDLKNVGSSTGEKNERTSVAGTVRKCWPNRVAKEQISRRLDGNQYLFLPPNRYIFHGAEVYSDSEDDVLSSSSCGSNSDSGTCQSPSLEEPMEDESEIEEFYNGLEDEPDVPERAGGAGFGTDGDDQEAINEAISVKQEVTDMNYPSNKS

[4] = target: T2, Peroxisome proliferator-activated receptor gamma coactivator 1-alpha (Homo sapiens) (UniProt Q9UBK2); experiment: Binding affinity to PGC1alpha (unknown origin) by surface plasmon resonance assay; settings: filed as activator
T2 sequence (whole entry): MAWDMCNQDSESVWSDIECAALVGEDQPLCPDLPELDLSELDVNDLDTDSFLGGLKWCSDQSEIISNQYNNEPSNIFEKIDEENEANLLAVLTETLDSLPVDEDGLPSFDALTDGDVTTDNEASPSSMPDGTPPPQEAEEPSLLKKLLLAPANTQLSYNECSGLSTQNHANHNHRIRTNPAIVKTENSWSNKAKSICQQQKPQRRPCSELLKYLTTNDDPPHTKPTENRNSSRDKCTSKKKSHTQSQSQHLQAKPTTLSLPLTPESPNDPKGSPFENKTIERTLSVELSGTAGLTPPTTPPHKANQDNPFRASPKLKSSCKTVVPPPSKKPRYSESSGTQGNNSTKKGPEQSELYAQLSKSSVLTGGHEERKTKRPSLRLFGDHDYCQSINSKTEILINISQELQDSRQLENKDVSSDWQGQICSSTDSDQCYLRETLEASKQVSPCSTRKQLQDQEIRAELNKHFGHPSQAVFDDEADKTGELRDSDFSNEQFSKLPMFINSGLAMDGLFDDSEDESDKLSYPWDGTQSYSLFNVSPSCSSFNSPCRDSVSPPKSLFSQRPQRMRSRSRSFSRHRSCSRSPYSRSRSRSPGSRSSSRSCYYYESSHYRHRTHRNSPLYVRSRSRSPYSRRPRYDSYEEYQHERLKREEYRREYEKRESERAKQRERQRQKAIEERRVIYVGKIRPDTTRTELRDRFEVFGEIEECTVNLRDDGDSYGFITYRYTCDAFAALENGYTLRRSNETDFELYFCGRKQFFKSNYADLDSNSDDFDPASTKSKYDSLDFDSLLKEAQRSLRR

| SMILES | Activity (EA.hy 926 [1]) | EC50 (EA.hy 926 [2]) | Activity [3] | Activity [4] |
| --- | --- | --- | --- | --- |
| COc1cc(O)cc(Cl)c1C(=O)c1ccc(CC(C)C)cc1 | 2.99% | – | – | – |
| CCCCc1ccc(C(=O)c2c(O)cc(O)cc2O)cc1 | 36.04% | – | – | – |
| Cc1c(O)ccc(C(=O)c2ccc(CC(C)C)cc2)c1O | 17.37% | – | – | – |
| CCCCc1ccc(C(=O)c2cc(O)c(Cl)cc2O)cc1 | 21.66% | – | – | – |
| CC(C)(C)c1ccc(C(=O)c2c(O)cc(O)cc2O)cc1 | -64% | – | – | – |
| CC(C)(C)c1ccc(C(=O)c2c(O)cc(O)cc2Cl)cc1 | -49% | – | – | – |
| Cc1c(O)ccc(C(=O)c2ccc(C(C)(C)C)cc2)c1O | -67.36% | – | – | – |
| CC(C)Cc1ccc(C(=O)c2c(O)cc(O)cc2Cl)cc1 | -8.4% | – | – | – |
| CCCCc1ccc(C(=O)c2cc(O)c(O)cc2F)cc1 | 58.82% | – | – | – |
| CC(C)(C)c1ccc(C(=O)c2cc(O)c(O)cc2F)cc1 | 80.56% | 104 nM | Active | Active |
| CCCCc1ccc(C(=O)c2cc(O)ccc2O)cc1 | 39.03% | – | – | – |
| CCCCc1ccc(C(=O)c2ccc(O)c(C)c2O)cc1 | 2.8% | – | – | – |
| O=c1c(O)c(-c2ccc(O)c(O)c2)oc2cc(O)cc(O)c12 [QUERCETIN] | 55.2% | 2670 nM | – | – |
| CC(C)Cc1ccc(C(=O)c2cc(O)c(O)cc2F)cc1 | 93.75% | 80.8 nM | Active | Active |
| CC(C)(C)c1ccc(C(=O)c2ccc(O)c(O)c2O)cc1 | -6.9% | – | – | – |
| CC(C)Cc1ccc(C(=O)c2cc(O)c(Cl)cc2O)cc1 | -3.92% | – | – | – |
| CC(C)Cc1ccc(C(=O)c2ccc(O)c(O)c2O)cc1 | 93.75% | 118 nM | Active | Active |
| CCCCc1ccc(C(=O)c2ccc(O)c(O)c2O)cc1 | 64.71% | – | – | – |
| CCCCc1ccc(C(=O)c2c(O)cc(O)cc2Cl)cc1 | 38.47% | – | – | – |
| COc1cc(O)cc(Cl)c1C(=O)c1ccc(C(C)(C)C)cc1 | -64% | – | – | – |
| CC(C)Cc1ccc(C(=O)c2c(O)cc(O)cc2O)cc1 | 21.63% | – | – | – |
| CC(C)Cc1ccc(C(=O)c2ccc(O)c(O)c2)cc1 | 93.75% | 81 nM | Active | Active |
| CC(C)Cc1ccc(C(=O)c2cc(O)ccc2O)cc1 | 8.96% | – | – | – |
| CC(C)(C)c1ccc(C(=O)c2cc(O)c(Cl)cc2O)cc1 | -67% | – | – | – |
| CCCCc1ccc(C(=O)c2ccc(O)c(O)c2)cc1 | 70.59% | 84.2 nM | Active | Active |
| CCCCc1ccc(C(=O)c2c(Cl)cc(O)cc2OC)cc1 | 11.76% | – | – | – |
| CC(C)(C)c1ccc(C(=O)c2cc(O)ccc2O)cc1 | -7% | – | – | – |
